In publication PMC6325563 (eNeuro, 2019):

What was measured:
Experiment in all cases: two-electrode voltage clamp, Xenopus oocytes
Type in all cases: cell-based
[1] = biological target: T1, (α4)2(β2)3 nAChR (high sensitivity) (Rattus norvegicus, UniProt P09483+P12390)
T1 construct: gene Chrna4; subunits in pGEMhe, mRNA alpha4:beta2 1:10 injected in Xenopus laevis oocytes; pentamer
Text: (§1) two-electrode voltage clamp, Xenopus oocytes on (α4)2(β2)3 nAChR (high sensitivity)

[2] = biological target: T2, (α4)3(β2)2 nAChR (low sensitivity) (Rattus norvegicus, UniProt P09483+P12390)
T2 construct: gene Chrna4; subunits in pGEMhe, mRNA alpha4:beta2 10:1 injected in Xenopus laevis oocytes; pentamer
Text: (§2) two-electrode voltage clamp, Xenopus oocytes on (α4)3(β2)2 nAChR (low sensitivity)

[3] = biological target: T3, (α4)2(β2)3 nAChR (high sensitivity) (Rattus norvegicus, UniProt P09483+P12390, P09483:L285C); conditions: read-out: IC50 (μM (-)-menthol) ± SEM
T3 construct: gene Chrna4; subunits in pGEMhe, mRNA alpha4:beta2 1:10 injected in Xenopus laevis oocytes; pentamer
Text: as §1

[4] = biological target: T4, (α4)2(β2)3 nAChR (high sensitivity) (Rattus norvegicus, UniProt P09483+P12390, P09483:L285W); conditions: read-out: IC50 (μM (-)-menthol) ± SEM
T4 construct: gene Chrna4; subunits in pGEMhe, mRNA alpha4:beta2 1:10 injected in Xenopus laevis oocytes; pentamer
Text: as §1

[5] = biological target: T5, (α4)2(β2)3 nAChR (high sensitivity) (Rattus norvegicus, UniProt P09483+P12390, P09483:L285S); conditions: read-out: IC50 (μM (-)-menthol) ± SEM
T5 construct: gene Chrna4; subunits in pGEMhe, mRNA alpha4:beta2 1:10 injected in Xenopus laevis oocytes; pentamer
Text: as §1

[6] = biological target: T6, (α4)2(β2)3 nAChR (high sensitivity) (Rattus norvegicus, UniProt P09483+P12390, P09483:L285I); conditions: read-out: IC50 (μM (-)-menthol) ± SEM
T6 construct: gene Chrna4; subunits in pGEMhe, mRNA alpha4:beta2 1:10 injected in Xenopus laevis oocytes; pentamer
Text: as §1

[7] = biological target: T7, (α4)2(β2)3 nAChR (high sensitivity) (Rattus norvegicus, UniProt P09483+P12390, P09483:L285F); conditions: read-out: IC50 (μM (-)-menthol) ± SEM
T7 construct: gene Chrna4; subunits in pGEMhe, mRNA alpha4:beta2 1:10 injected in Xenopus laevis oocytes; pentamer
Text: as §1

[8] = biological target: T8, (α4)2(β2)3 nAChR (high sensitivity) (Rattus norvegicus, UniProt P09483+P12390, P09483:L285Q); conditions: read-out: IC50 (μM (-)-menthol) ± SEM
T8 construct: gene Chrna4; subunits in pGEMhe, mRNA alpha4:beta2 1:10 injected in Xenopus laevis oocytes; pentamer
Text: as §1

[9] = biological target: T9, (α4)2(β2)3 nAChR (high sensitivity) (Rattus norvegicus, UniProt P09483+P12390, P09483:L285M); conditions: read-out: IC50 (μM (-)-menthol) ± SEM
T9 construct: gene Chrna4; subunits in pGEMhe, mRNA alpha4:beta2 1:10 injected in Xenopus laevis oocytes; pentamer
Text: as §1

[10] = biological target: T10, (α4)3(β2)2 nAChR (low sensitivity) (Rattus norvegicus, UniProt P09483+P12390, P09483:L285M); conditions: read-out: IC50 (μM (-)-menthol) ± SEM
T10 construct: gene Chrna4; subunits in pGEMhe, mRNA alpha4:beta2 10:1 injected in Xenopus laevis oocytes; pentamer
Text: as §2

[11] = biological target: T11, (α4)3(β2)2 nAChR (low sensitivity) (Rattus norvegicus, UniProt P09483+P12390, P09483:L285I); conditions: read-out: IC50 (μM (-)-menthol) ± SEM
T11 construct: gene Chrna4; subunits in pGEMhe, mRNA alpha4:beta2 10:1 injected in Xenopus laevis oocytes; pentamer
Text: as §2

[12] = biological target: T12, (α4)3(β2)2 nAChR (low sensitivity) (Rattus norvegicus, UniProt P09483+P12390, P09483:S286L); conditions: read-out: IC50 (μM (-)-menthol) ± SEM
T12 construct: gene Chrna4; subunits in pGEMhe, mRNA alpha4:beta2 10:1 injected in Xenopus laevis oocytes; pentamer
Text: as §2

α5[wt](α4[wt]β2[wt])2 = biological target: T13, α5[wt](α4[wt]β2[wt])2 (Rattus norvegicus, UniProt P09483+P12390); conditions: read-out: IC50 (μM (-)-menthol) ± SEM
T13 construct: gene Chrna4; Xenopus laevis oocytes; alpha5 in the auxiliary position of alpha4beta2
Text: two-electrode voltage clamp, Xenopus oocytes on α5[wt](α4[wt]β2[wt])2

T2 sequence (P09483 31-630): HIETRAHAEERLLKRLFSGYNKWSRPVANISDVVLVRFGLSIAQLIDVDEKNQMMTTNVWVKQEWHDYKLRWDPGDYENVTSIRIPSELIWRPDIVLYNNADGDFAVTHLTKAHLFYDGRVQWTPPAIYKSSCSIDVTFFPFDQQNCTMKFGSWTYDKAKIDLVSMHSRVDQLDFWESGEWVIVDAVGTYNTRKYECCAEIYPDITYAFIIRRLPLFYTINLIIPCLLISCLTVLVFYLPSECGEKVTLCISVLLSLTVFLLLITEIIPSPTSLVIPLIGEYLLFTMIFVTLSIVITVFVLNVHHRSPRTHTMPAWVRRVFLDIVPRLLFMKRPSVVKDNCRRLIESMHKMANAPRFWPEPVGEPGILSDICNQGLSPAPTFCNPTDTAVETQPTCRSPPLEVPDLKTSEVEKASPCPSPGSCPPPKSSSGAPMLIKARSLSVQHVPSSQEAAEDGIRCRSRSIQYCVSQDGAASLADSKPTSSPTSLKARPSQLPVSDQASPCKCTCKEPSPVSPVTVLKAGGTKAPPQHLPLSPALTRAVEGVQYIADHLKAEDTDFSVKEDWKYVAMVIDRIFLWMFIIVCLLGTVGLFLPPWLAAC
T2 sequence (P12390 25-500): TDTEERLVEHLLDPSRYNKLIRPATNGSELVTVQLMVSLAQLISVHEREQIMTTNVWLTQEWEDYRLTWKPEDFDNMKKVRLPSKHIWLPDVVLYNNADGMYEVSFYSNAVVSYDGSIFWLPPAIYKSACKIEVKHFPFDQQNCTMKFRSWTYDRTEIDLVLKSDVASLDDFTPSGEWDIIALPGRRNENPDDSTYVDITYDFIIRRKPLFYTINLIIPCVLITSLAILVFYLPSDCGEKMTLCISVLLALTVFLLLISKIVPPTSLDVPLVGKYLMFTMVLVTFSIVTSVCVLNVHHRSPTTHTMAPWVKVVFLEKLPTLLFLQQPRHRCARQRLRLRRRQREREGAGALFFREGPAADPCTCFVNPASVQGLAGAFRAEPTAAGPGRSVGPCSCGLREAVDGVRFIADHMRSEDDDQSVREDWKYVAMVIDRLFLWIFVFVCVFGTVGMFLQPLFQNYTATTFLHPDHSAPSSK
T1 sequence (P09483 31-630): as the sequence (P09483 31-630) above
T1 sequence (P12390 25-500): as the sequence (P12390 25-500) above
T5 sequence (P09483 31-630 L285S): as the sequence (P09483 31-630) above, with L255S counted along it
T5 sequence (P12390 25-500): as the sequence (P12390 25-500) above
T4 sequence (P09483 31-630 L285W): as the sequence (P09483 31-630) above, with L255W counted along it
T4 sequence (P12390 25-500): as the sequence (P12390 25-500) above
T11 sequence (P09483 31-630 L285I): as the sequence (P09483 31-630) above, with L255I counted along it
T11 sequence (P12390 25-500): as the sequence (P12390 25-500) above
T6 sequence (P09483 31-630 L285I): as the sequence (P09483 31-630) above, with L255I counted along it
T6 sequence (P12390 25-500): as the sequence (P12390 25-500) above
T12 sequence (P09483 31-630 S286L): as the sequence (P09483 31-630) above, with S256L counted along it
T12 sequence (P12390 25-500): as the sequence (P12390 25-500) above
T7 sequence (P09483 31-630 L285F): as the sequence (P09483 31-630) above, with L255F counted along it
T7 sequence (P12390 25-500): as the sequence (P12390 25-500) above
T8 sequence (P09483 31-630 L285Q): as the sequence (P09483 31-630) above, with L255Q counted along it
T8 sequence (P12390 25-500): as the sequence (P12390 25-500) above
T10 sequence (P09483 31-630 L285M): as the sequence (P09483 31-630) above, with L255M counted along it
T10 sequence (P12390 25-500): as the sequence (P12390 25-500) above
T9 sequence (P09483 31-630 L285M): as the sequence (P09483 31-630) above, with L255M counted along it
T9 sequence (P12390 25-500): as the sequence (P12390 25-500) above
T3 sequence (P09483 31-630 L285C): as the sequence (P09483 31-630) above, with L255C counted along it
T3 sequence (P12390 25-500): as the sequence (P12390 25-500) above
T13 sequence (P09483 31-630): as the sequence (P09483 31-630) above
T13 sequence (P12390 25-500): as the sequence (P12390 25-500) above
T13 sequence (P20420 28-452 partner): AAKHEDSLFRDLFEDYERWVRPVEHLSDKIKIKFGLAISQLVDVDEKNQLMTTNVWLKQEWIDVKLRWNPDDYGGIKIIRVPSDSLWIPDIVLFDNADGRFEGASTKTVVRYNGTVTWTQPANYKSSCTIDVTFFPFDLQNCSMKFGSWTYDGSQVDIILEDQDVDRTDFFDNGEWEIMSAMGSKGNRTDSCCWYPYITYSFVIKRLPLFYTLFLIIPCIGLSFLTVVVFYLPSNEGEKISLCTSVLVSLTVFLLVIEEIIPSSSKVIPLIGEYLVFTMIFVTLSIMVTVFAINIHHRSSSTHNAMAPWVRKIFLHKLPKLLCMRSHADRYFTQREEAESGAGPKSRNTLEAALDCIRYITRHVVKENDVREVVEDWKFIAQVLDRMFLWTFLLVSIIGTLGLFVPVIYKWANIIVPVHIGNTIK

Row | SMILES | IC50 [1] | IC50 [2] | IC50 [3] | IC50 [4] | IC50 [5] | IC50 [6] | IC50 [7] | IC50 [8] | IC50 [9] | IC50 [10] | IC50 [11] | IC50 [12] | IC50 (α5[wt](α4[wt]β2[wt])2)
1 | CC(C)[C@H]1CC[C@H](C)C[C@@H]1O [(+)-menthol] | 48.3 ± 1.67 µM | 45.5 ± 2.03 µM | – | – | – | – | – | – | – | – | – | – | –
2 | CC(C)[C@@H]1CC[C@@H](C)C[C@H]1O [(−)-menthol] | 44.9 ± 1.62 µM | 33.1 ± 1.83 µM | 306 ± 173 µM | 28.8 ± 3.26 µM | 514 ± 361 µM | 97.3 ± 38.5 µM | 211 ± 75.6 µM | 165 ± 28.1 µM | 26.6 ± 1.9 µM | 39.2 ± 7.98 µM | 127 ± 29.1 µM | 29.4 ± 4.32 µM | 51 ± 9.06 µM
